This is an account of results in patent publication US20180340174A1, “METHOD FOR IDENTIFICATION OF MOLECULES WITH DESIRED CHARACTERISTICS” (NANOCORE APS, priority 2014, published 2018).

In general, pKd refers to the negative decadic logarithm of the Kd, by convention in mol/L.

pKd: −log10 of the molar value. Where two headings read alike, the source gives them in different places. Where no end group is shown, it is not given here.

Assay [1] has as its target T1, soluble epoxide hydrolase (sEH) (Homo sapiens, UniProt P34913).
T1 sequence (P34913 1-555): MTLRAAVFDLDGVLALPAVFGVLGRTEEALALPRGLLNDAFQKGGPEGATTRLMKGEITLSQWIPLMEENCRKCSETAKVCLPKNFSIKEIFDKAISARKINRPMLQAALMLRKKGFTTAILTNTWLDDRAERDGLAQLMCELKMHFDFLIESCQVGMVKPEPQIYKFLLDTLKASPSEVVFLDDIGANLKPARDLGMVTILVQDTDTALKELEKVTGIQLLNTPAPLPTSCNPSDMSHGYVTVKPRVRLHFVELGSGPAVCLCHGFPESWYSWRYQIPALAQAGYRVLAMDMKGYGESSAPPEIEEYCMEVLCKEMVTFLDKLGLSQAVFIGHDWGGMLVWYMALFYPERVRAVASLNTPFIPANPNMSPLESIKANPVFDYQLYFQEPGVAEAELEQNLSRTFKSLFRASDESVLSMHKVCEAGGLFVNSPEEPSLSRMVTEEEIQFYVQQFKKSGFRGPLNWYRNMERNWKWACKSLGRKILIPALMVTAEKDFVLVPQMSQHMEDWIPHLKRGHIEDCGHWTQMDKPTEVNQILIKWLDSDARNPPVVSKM
The note with it: Litovchick 2015; cited from earlier work.

The conditions of assay [2]: Seker et al. 2011; Chen et al. 2006; cited from earlier work.
For assay [3] the following is noted: Seker et al. 2011; cited from earlier work.
The conditions of assay [4]: Serizawa et al. 2007; bound to PMMA (isotactic); cited from earlier work.
For assay [5] the following is noted: Serizawa et al. 2007; bound to PMMA (syndiotactic); cited from earlier work.
For assay [6] the following is noted: Eijima et al. 2010; bound to PPV (hyper-branched); cited from earlier work.
The conditions of assay [7]: Eijima et al. 2010; bound to PPV (linear); cited from earlier work.
The conditions of assay [8]: Serizawa et al. 2007; cited from earlier work.
The conditions of assay [9]: Serizawa et al. 2007; bound to Polystyrene (syndiotactic); cited from earlier work.
For assay [10] the following is noted: Serizawa et al. 2007; bound to Polystyrene (atactic); cited from earlier work.
The conditions of assay [11]: Serizawa et al. 2007; bound to Polystyrene (isotactic); cited from earlier work.
The conditions of assay [12]: Serizawa et al. 2007; cited from earlier work. This is another data set of the same source.
The conditions of assay [13]: Wang et al. 2003; cited from earlier work.
The nature of assay [14]: Enrichment of CNT-binding peptide A2 displayed on bacteriophages versus mini-M13, blue/white colony counting.
For assay [15] the following is noted: Li et al. 2013; cited from earlier work.
For assay [16] the following is noted: Islam et al. 2012; bound to Ceramic fluorapatite; cited from earlier work.
The conditions of assay [17]: Islam et al. 2012; bound to Ceramic hydroxyl-apatite; cited from earlier work.
The conditions of assay [18]: Matsuno et al. 2008; bound to PLLA (layer by layer); cited from earlier work.
For assay [19] the following is noted: Matsuno et al. 2008; bound to PLLA (amorphous); cited from earlier work.
For assay [20] the following is noted: Matsuno et al. 2008; bound to PLLA (melt crystallization); cited from earlier work.
For assay [21] the following is noted: Matsuno et al. 2008; bound to PDLA; cited from earlier work.
For assay [22] the following is noted: Matsuno et al. 2008; bound to PMMA (atactic); cited from earlier work.
For assay [23] the following is noted: Sano et al. 2005; Meyers et al. 2007; cited from earlier work.
The conditions of assay [24]: Weiger et al. 2010; read-out: KD to HA; cited from earlier work.
A short description of assay [25]: Selection of polynucleotide-tagged molecules on carbon nanotubes without and with PPyCl repeat units in the medium (Example 15.0.0.0). In kind it is binding. The procedure: In this example library molecules (M) are peptides linked by […] (L) to DNA tags encoding the peptide. […] Identification of carbon nanotube binding molecules is described in Brown et al. (Small. 2008 April; 4 (4):416-20). The CNT target is prepared from single-walled carbon nanotubes (purified HiPCO, Carbon Nanotechnologies Inc., US) used as purchased. Bundles and individual tubes are suspended in dichloroethane by sonication and deposited on pieces of double side polished Si wafers. The CNT mats are inspected by scanning electron microscopy. A uniform, dense coverage on both sides of the 1 cm2 substrates is achieved by repeatedly depositing drops from the suspension, rinsing with isopropanol, and blow drying with nitrogen. Test enrichments are conducted inn a phosphate buffer (PKT). The enrichment for adhesion to CNT mats using solution conditions is done similarly to other searches for CNT binders. The population recovered from a single cycle of enrichment for binding to CNTs in a Tris-HCl buffer (TNT) differed from that obtained in PKT.
Binding molecules, which bind efficiently to a filler (carbon nanotubes) but not to a polymer matrix (PPyCl) of a composite material, are identified essentially as described in example 1.1.1.1. […]

Turning to `CN(CCn1cccn1)C(=O)c1ccc(-c2cccc(C(=O)NC3CCCCC3)c2)nc1` [compound 12], in assay [1], the “enrichment over two affinity-mediated selection steps compared to the average within the naïve library” value is listed as “approximately 30,000 fold”.
Regarding CHKKPSKSC, the pKd in assay [2] was 8.39.
As to CPTSTGQAC, in assay [3], the pKd is 6.55.
As to CTLHVSSYC, the pKd in [3] is 5.96.
As to ELWRPTR, the values for the pKd in assay [4] and in assay [5] were 5.44 and 3.82, respectively.
For ELWSIDTSAHRK, the pKd was 4.57 in assay [6] and 4.89 in [7].
Consider FPGHSGP, for which, in [8], the pKd was 10.00.
For the compound FPGRPSP, the figures for the pKd in [9] and in assay [10] were 11.07 and 10.51, respectively.
Turning to FSWEAFA, the pKd in assay [9] was 11.21; in assay [10] it was 10.07; in [11] it was 10.47.
With GETQCAA, the pKd is 11.13 in assay [9] and 10.47 in assay [10].
As for GETRAPL, the pKd in assay [9] is 11.17; in [10], 10.17; in [11] it was 10.44.
Regarding HKPDANR, the pKd in [12] is 10.60.
As for HLESTPG, the pKd in assay [9] was 11.10; in [10] it was 10.00; in assay [11] it was 10.19.
Turning to HTAQSTA, the pKd in assay [9] is 11.00; in [10], 10.85.
As to HTDWRLGTWHETS, the pKd was 5.89 in [6] and 4.72 in [7].
As for HWKHPWGAWDTL, the pKd in assay [13] was 4.30.
In the case of IFRLSWGTYFS [A2], the Enrichment fold in [14] (1 wash, CNT 0.02 mg/ml, 1.1E+9 bacteriophages) came to 100 fold; in assay [14] (3 washes, CNT 0.02 mg/ml, 1.1E+9 bacteriophages) it was 85 fold; in assay [14] (10 washes, CNT 0.02 mg/ml, 1.1E+9 bacteriophages), 91 fold; in assay [14] (one wash, CNT 0.02 mg/ml, 1.1E+11 bacteriophages), 2 fold; in [14] (one wash, CNT 0.2 mg/ml, 1.1E+9 bacteriophages), 23 fold; in assay [14] (one wash, CNT 0.2 mg/ml, 1.1E+11 bacteriophages) it was 7 fold. The Enrichment fold was determined as 4 fold in assay [14] (one wash, CNT 2 mg/ml, 1.1E+9 bacteriophages); 10 fold in assay [14] (one wash, CNT 2 mg/ml, 1.1E+11 bacteriophages); 15 fold in [14] (ten washes with 1 min. sonication at 35 kHz and 160 W during washing, CNT 0.2 mg/ml, 1.1E+11 bacteriophages); 8 fold in assay [14] (ten washes, CNT 0.02 mg/ml, 1.1E+11 bacteriophages); 17 fold in [14] (ten washes, CNT 0.2 mg/ml, 1.1E+9 bacteriophages); 19 fold in [14] (ten washes, CNT 0.2 mg/ml, 1.1E+11 bacteriophages). For the same compound, the Enrichment fold in [14] (ten washes, CNT 2 mg/ml, 1.1E+9 bacteriophages) is recorded as 2 fold; in [14] (ten washes, CNT 2 mg/ml, 1.1E+11 bacteriophages) it was 3 fold; in [14] (three washes with 1 min. sonication at 35 kHz and 160 W during washing, CNT 0.2 mg/ml, 1.1E+11 bacteriophages) it was 17 fold; in assay [14] (three washes, CNT 0.02 mg/ml, 1.1E+11 bacteriophages), 16 fold; in assay [14] (three washes, CNT 0.2 mg/ml, 1.1E+9 bacteriophages), 16 fold; in assay [14] (three washes, CNT 0.2 mg/ml, 1.1E+11 bacteriophages), 16 fold. Also, the Enrichment fold in assay [14] (three washes, CNT 2 mg/ml, 1.1E+9 bacteriophages) worked out at 2 fold; in [14] (three washes, CNT 2 mg/ml, 1.1E+11 bacteriophages) it was 4 fold. For the same compound, in [15], the pKd is 4.70.
Regarding KPRSVSG, the pKd was 5.27 in [16] and 5.14 in assay [17].
Take QLMHDYR: the pKd in assay [18] is 4.17; in [19] it was 3.82; in assay [20] it was 4.80; in assay [21] it was 4.68; in assay [22], 3.74.
With QTWPPPLWFSTS, the pKd in [2] was 6.09.
Consider RHEPPLA, for which the pKd in assay [9] was 10.96; in assay [10], 10.25; in [11] it was 10.68.
RKLPDAPGMHTW: in [23], the pKd was 4.89.
RLNPPSQMDPPF: the pKd in [2] is 5.08.
SCSDCLKSVDFIPSSLASS: the pKd in assay [23] was 6.60.
Regarding SVSVGMKPSPRPGGGK, the pKd in assay [24] is 4.85.
Consider THLPWQT, for which the pKd in [8] was 10.17.
Consider YLTMPTP, for which the pKd in assay [9] was 11.30; in [10], 10.66.
On to “polynucleotide-tagged THRTSTLDYFVI-pyrene: polynucleotide-tagged peptide-pyrene which can bind to both carbon nanotubes and PPyCl (also: polynucleotide tag, site not given here)”, for which the “Outcome of selection on carbon nanotubes” value in assay [25] (first experiment, medium as in example 1.1.1.1) was “identified as carbon nanotube binding molecules”; in assay [25] (second experiment, medium comprises repeat units of PPyCl), “removed during the partitioning step”.
